From patent US5236900A, “Anti-fungal agents” (Schering Corporation, priority 1991, dated 1993) come the findings set out here.

Test [1] concerns Sensitive strains: Candida albicans C141, Candida sp. C2, Candida sp. C109, Candida parapsilosis C67, Candida tropicalis C112, Torulopsis glabrata C95, Candida …. The test is described as follows: Microtiter minimum inhibitory concentration (MIC) test, sensitive strains. The test is classed as cell-based, Candida spp., Sacchararomyces. The following applies: geometric mean of MICs against sensitive strains; YNB pH 5.4, 37° C., 48 hours.
Protocol: (§1) In vitro anti-fungal activity was determined in microtiter minimum inhibitory concentration (MIC) tests using Yeast Nitrogen Broth (YNB without amino acids, Difco., Detroit, Mich.) at pH 5.4. Yeasts were grown overnight in Sabouraud Dextrose Broth at 28° C. with shaking, and concentrations adjusted in sterile saline using a spectrophoptometer at 540 mμ. Compounds were dissolved in various vehicles and diluted in media to twice the final concentrations. The Cetus Pro/Pette system was used to serially dilute 50 μl in round bottom 96 well plates (Falcon, Lincoln Park, N.J.). The turbidometrically adjusted yeast suspensions were diluted 1:3,000 in YNB. These dilutions when added to the wells, produced a final inoculum of 3×10^3 /ml. Plates were incubated at 37° C. for 48 hours. MICs were defined as the lowest concentrations of compound that prevented visible growth. MICs were taken against the following organisms and expressed in the table above as the geometric mean.
Candida pseudotropicalis C 967
Candida guillermondii C137
Sacchararomyces mutant C147

For test [2], the system named is Resistant strains: Candida albicans C79, C6, C8, C31, C54, C70, C104, C138, C140; Candida stellatoidea C45. Put plainly: Microtiter minimum inhibitory concentration (MIC) test, resistant strains. Type of test: cell-based. The following applies: geometric mean of MICs against resistant strains; YNB pH 5.4, 37° C., 48 hours.
Protocol: as §1

In test [1], “6'-Dodecylamido-5-N-L-Valinyl-UPOC [Compound 3]” gave an MIC-S of 26 µg/mL. In test [2], this substance registered an MIC-R of 17 µg/mL.
